From BindingDB's records for PubMed 34705450 (Astex Pharmaceuticals, 2021)
pEC50, pIC50: −log10 of the molar value.

molecular target: T1, Nuclear factor erythroid 2-related factor 2 (Homo sapiens, UniProt Q16236); assay: Induction of Nrf2 in human BEAS-2B cells assessed as increase in NQO1 protein level incubated for 48 hrs by MTT assay
T1 sequence (Q16236 whole entry): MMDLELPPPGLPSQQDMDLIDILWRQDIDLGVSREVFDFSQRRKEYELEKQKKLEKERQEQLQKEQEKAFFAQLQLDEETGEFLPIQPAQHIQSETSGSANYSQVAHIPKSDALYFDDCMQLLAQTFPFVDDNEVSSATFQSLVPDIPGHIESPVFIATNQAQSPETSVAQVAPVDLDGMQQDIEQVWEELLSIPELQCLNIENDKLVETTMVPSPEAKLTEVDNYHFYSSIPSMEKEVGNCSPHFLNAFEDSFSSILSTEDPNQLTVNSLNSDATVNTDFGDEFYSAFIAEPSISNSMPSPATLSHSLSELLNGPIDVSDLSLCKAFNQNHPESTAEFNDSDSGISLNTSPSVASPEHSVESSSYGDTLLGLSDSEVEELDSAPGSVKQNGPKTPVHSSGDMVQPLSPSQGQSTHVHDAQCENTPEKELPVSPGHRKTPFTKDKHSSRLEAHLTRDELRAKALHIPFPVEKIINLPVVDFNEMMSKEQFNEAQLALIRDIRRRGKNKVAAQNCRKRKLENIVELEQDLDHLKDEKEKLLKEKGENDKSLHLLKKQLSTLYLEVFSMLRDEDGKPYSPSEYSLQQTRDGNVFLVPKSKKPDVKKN

| SMILES | pEC50 |
| --- | --- |
| CN(C)C(=O)[C@H]1CCC[C@@H](c2cccc(-n3ncc(C(=O)O)c3C3CC3)c2)C1 | 5.77 |
| O=C(O)c1cnn(-c2cccc(-c3cccc(C(=O)N4CCCC5(CCCC5)C4)c3F)c2)c1C1CC1 | 5.43 |
| CCCC[C@@H]1CCCN1C(=O)[C@H]1CCC[C@@H](c2cccc(-n3ncc(C(=O)O)c3C3CC3)c2)C1 | 5.37 |
| CCCC1CCCCN1C(=O)c1cccc(-c2cccc(-n3ncc(C(=O)O)c3C3CC3c3cccnc3)c2)c1 (stereo unspecified) | 5.49 |
| CCC[C@@H]1CCCCN1C(=O)c1cccc(-c2cccc(-n3ncc(C(=O)O)c3[C@H]3C[C@@H]3c3cn(C)nn3)c2)c1 | 7.37 |
| CCC[C@H]1CCCCN1C(=O)c1cccc(-c2cccc(-n3ncc(C(=O)O)c3C3CC3)c2)c1F | 5.46 |
| CCCC1CCCCN1C(=O)C1CCCC(c2cccc(-n3ncc(C(=O)O)c3C3CC3)c2)C1 (stereo unspecified) | 5.39 |
| CCCC1CCCCN1C(=O)c1cccc(-c2cccc(-n3ncc(C(=O)O)c3C3CC3c3cn(C)nn3)c2)c1 (stereo unspecified) | 6.92 |
| CCCC1CCCCN1C(=O)c1cccc(-c2cccc(-n3ncc(C(=O)O)c3C3CC3c3ccccn3)c2)c1 (stereo unspecified) | 5.42 |
| O=C(O)c1cnn(-c2cccc(-c3cccc(C(=O)N(CC4CC4)CC4CC4)c3F)c2)c1C1CC1 | 5.46 |
| CCCC1COCCN1C(=O)c1cccc(-c2cccc(-n3ncc(C(=O)O)c3C3CC3)c2)c1F (stereo unspecified) | 5.60 |
| CN(C)C(=O)c1cccc(-c2cccc(-n3ncc(C(=O)O)c3C3CC3)c2)c1 | 5.85 |

Now from value to compound:

| pEC50 | SMILES |
| --- | --- |
| 5.36 | CCCCC1CCCN1C(=O)C1CCCC(c2cccc(-n3ncc(C(=O)O)c3C3CC3)c2)C1 (stereo unspecified) |
| 5.46 | CCC[C@@H]1CCCCN1C(=O)c1cccc(-c2cccc(-n3ncc(C(=O)O)c3C3CC3)c2)c1F |
| 5.57 | O=C(O)c1cnn(-c2cccc([C@@H]3CCC[C@H](C(=O)N4CCCCC4)C3)c2)c1C1CC1 |
| 5.66 | CN(CC1CC1)C(=O)c1cccc(-c2cccc(-n3ncc(C(=O)O)c3C3CC3)c2)c1F |
| 5.89 | CN(C)C(=O)c1cccc(-c2cccc(-n3ncc(C(=O)O)c3C3CC3)c2)c1F |
| 5.64 | O=C(O)c1cnn(-c2cccc(-c3cccc(C(=O)N4CCCCC4)c3F)c2)c1C1CC1 |
| 5.55 | CCCC1CCCCN1C(=O)c1cccc(-c2cccc(-n3ncc(C(=O)O)c3C3CC3c3cccnn3)c2)c1 (stereo unspecified) |
| < 5.30 | CCC[C@@H]1CCCCN1C(=O)c1cccc(-c2cccc(-n3ncc(C(=O)O)c3[C@@H]3C[C@H]3c3cn(C)nn3)c2)c1 |

molecular target: Kelch-like ECH-associated protein 1 (Homo sapiens, UniProt Q14145)
Sequence (Q14145 whole entry): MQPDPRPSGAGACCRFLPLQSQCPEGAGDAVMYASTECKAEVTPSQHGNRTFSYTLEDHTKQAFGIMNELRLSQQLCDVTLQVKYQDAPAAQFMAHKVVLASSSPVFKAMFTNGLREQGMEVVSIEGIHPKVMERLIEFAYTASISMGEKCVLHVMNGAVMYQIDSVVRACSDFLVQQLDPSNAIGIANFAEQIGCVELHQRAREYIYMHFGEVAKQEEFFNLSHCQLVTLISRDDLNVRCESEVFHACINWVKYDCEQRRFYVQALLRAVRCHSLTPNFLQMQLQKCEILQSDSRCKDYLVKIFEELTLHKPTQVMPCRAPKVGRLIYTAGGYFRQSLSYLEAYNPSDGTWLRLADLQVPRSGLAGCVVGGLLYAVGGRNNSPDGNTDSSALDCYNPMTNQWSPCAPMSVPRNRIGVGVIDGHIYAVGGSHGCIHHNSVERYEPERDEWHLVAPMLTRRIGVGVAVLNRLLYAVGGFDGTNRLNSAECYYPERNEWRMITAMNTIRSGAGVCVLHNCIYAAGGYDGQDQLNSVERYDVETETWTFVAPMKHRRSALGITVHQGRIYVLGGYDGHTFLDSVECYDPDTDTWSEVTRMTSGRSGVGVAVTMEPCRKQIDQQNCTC

| pIC50 | SMILES |
| --- | --- |
| 7.38 | CCCC1CCCCN1C(=O)c1cccc(-c2cccc(-n3ncc(C(=O)O)c3C3CC3c3ccccn3)c2)c1 (stereo unspecified) |
